The supplement of paper PMC11208160

Test: recombinant barcode read abundance after kanamycin selection (control-corrected) (log10(CPM+1)); higher = more efficient recombination; sequences stand for … in AGTGCAGAGAAAATCGGCCAGTTTTCTCTGCCTGCAGTCCGCATGCCGT…AGATTTATGCAGCGGACTGCCTTTCTCCCAAAGTGATAAACCGGACAGTATCATGGACCGGTTTTCCCGGTAATCCGTATTTGCAAGGTTGGTTTCACT; site = the 11-nt target
Outline: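 Values are log10(CPM+1) from a pooled E. coli screen of targets paired with IS621 bridge RNA target-binding loops. Recombination efficiency here means counts per million of recombinant-junction barcodes, averaged and control-corrected. Plates were chloramphenicol/ampicillin LB agar for the control and chloramphenicol/ampicillin/kanamycin with 0.1 mM IPTG, two replicates each.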
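Note: IS621 recombinase and bridge RNA in Escherichia coli cells.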

Sequence | recombinant barcode read abundance (log10)
CAGAGCCCTTGGGTTCTAACCTGTTGCTG (site CAGAGCCCTCA) | 1.84
CAGAGCCCTTGGGTTCTAACCTGTTGCTG (site CTGAGCCCTCA) | 0.0157
CAGAGGCCTTGGGTTCTAACCTGTTGCCT (site CAGAGGCCTAG) | 0.224
CAGAGGCCTTGGGTTCTAACCTGTTGCCT (site CAGCGGCCTAG) | 0.376
CAGAGGCCTTGGGTTCTAACCTGTTGCCT (site CAGGGGCCTAG) | 0.149
CAGAGGCCTTGGGTTCTAACCTGTTGCCT (site CAGTGGCCTAG) | 0
CAGAGGTCTTGGGTTCTAACCTGTTGCCT (site CAGAGCTCTAG) | 0
CAGAGGTCTTGGGTTCTAACCTGTTGCCT (site CAGAGGTCTAG) | 1.39
CAGCAAGCTTGGGTTCTAACCTGTTGCCT (site CAGCAAGCTAG) | 1.17
CAGCAAGCTTGGGTTCTAACCTGTTGCCT (site CAGTACGCTAG) | 0.0513
CAGCACTCTTGGGTTCTAACCTGTTGCTA (site CAGCACTCTTA) | 2.12
CAGCACTCTTGGGTTCTAACCTGTTGCTA (site CAGGACTCTAA) | 0.201
CAGCATACTTGGGTTCTAACCTGTTGCCT (site CAGCATACTAG) | 1.74
CAGCATACTTGGGTTCTAACCTGTTGCCT (site CCGCATACTAG) | 0.159
CAGCATACTTGGGTTCTAACCTGTTGCCT (site CGGCATACTAG) | 0.215
CAGCATACTTGGGTTCTAACCTGTTGCCT (site CTGCATACTAG) | 0.0255
CAGCCCTCTTGGGTTCTAACCTGTTGCTA (site CAGCCCTCTTA) | 2.75
CAGCCCTCTTGGGTTCTAACCTGTTGCTA (site CCGCCCTCTAA) | 0.188
CAGCCTTCTTGGGTTCTAACCTGTTGCTT (site CAGCCTTCTAA) | 0.718
CAGCCTTCTTGGGTTCTAACCTGTTGCTT (site CATCCTCCTAA) | 0.0417
CAGCGTGCTTGGGTTCTAACCTGTTGCCT (site CAGCGTGCTAG) | 0.838
CAGCGTGCTTGGGTTCTAACCTGTTGCCT (site CCGCGTGCTAG) | 0.318

Sequence | recombinant barcode read abundance (log10)
CAGCGTGCTTGGGTTCTAACCTGTTGCCT (site CGGCGTGCTAG) | 0.216
CAGCGTGCTTGGGTTCTAACCTGTTGCCT (site CTGCGTGCTAG) | 0.612
CAGGAACCTTGGGTTCTAACCTGTTGCCT (site AAGGAACCTAG) | 0.15
CAGGAACCTTGGGTTCTAACCTGTTGCCT (site CAGGAACCTAG) | 2.01
CAGGAACCTTGGGTTCTAACCTGTTGCCT (site GAGGAACCTAG) | 0.235
CAGGAACCTTGGGTTCTAACCTGTTGCCT (site TAGGAACCTAG) | 0.216
CAGGCCACTTGGGTTCTAACCTGTTGCCT (site CAGGCCACTAG) | 0.945
CAGGCCACTTGGGTTCTAACCTGTTGCCT (site CCGGCCACTAG) | 0.0473
CAGGCCACTTGGGTTCTAACCTGTTGCCT (site CGGGCCACTAG) | 1.04
CAGGCCACTTGGGTTCTAACCTGTTGCCT (site CTGGCCACTAG) | 0.357
CAGTACTCTTGGGTTCTAACCTGTTGCCT (site CAGTAATCTAG) | 0.122
CAGTACTCTTGGGTTCTAACCTGTTGCCT (site CAGTACTCTAG) | 2.29
CAGTACTCTTGGGTTCTAACCTGTTGCCT (site CAGTAGTCTAG) | 0.1
CAGTACTCTTGGGTTCTAACCTGTTGCCT (site CAGTATTCTAG) | 0.0289
CAGTGGCCTTGGGTTCTAACCTGTTGCCT (site CAGAGGCCTAG) | 0.0837
CAGTGGCCTTGGGTTCTAACCTGTTGCCT (site CAGCGGCCTAG) | 0.124
CAGTGGCCTTGGGTTCTAACCTGTTGCCT (site CAGGGGCCTAG) | 0.234
CAGTGGCCTTGGGTTCTAACCTGTTGCCT (site CAGTGGCCTAG) | 0.132
CAGTTCGCTTGGGTTCTAACCTGTTGCCT (site CAGTTAGCTAG) | 0.141
CAGTTCGCTTGGGTTCTAACCTGTTGCCT (site CAGTTCGCTAG) | 1.6
CAGTTCGCTTGGGTTCTAACCTGTTGCCT (site CAGTTGGCTAG) | 0.0461
CAGTTCGCTTGGGTTCTAACCTGTTGCCT (site CAGTTTGCTAG) | 0.0585

Sequence | recombinant barcode read abundance (log10)
CAGTTTGCTTGGGTTCTAACCTGTTGCCT (site CAGTTAGCTAG) | 0.102
CAGTTTGCTTGGGTTCTAACCTGTTGCCT (site CAGTTCGCTAG) | 0.172
CAGTTTGCTTGGGTTCTAACCTGTTGCCT (site CAGTTGGCTAG) | 0
CAGTTTGCTTGGGTTCTAACCTGTTGCCT (site CAGTTTGCTAG) | 0.512
CATAACGCTTGGGTTCTAACCTGTTGCCT (site CATAACGCTAG) | 1.18
CATAACGCTTGGGTTCTAACCTGTTGCCT (site GCATCTACTTA) | 0.102
CATAGAGCTTGGGTTCTAACCTGTTGCCT (site CATAGAGCTAG) | 0.648
CATAGAGCTTGGGTTCTAACCTGTTGCCT (site CATAGGGCTCG) | 0.215
CATAGGGCTTGGGTTCTAACCTGTTGCCG (site CATAGAGCTAG) | 0.0324
CATAGGGCTTGGGTTCTAACCTGTTGCCG (site CATAGGGCTCG) | 1.03
CATAGTCCTTGGGTTCTAACCTGTTGCCA (site CATAGTCCTTG) | 0.299
CATAGTCCTTGGGTTCTAACCTGTTGCCA (site GTACAATCTCT) | 0.112
CATCAGCCTTGGGTTCTAACCTGTTGCGT (site CATCAGCCTAC) | 1.63
CATCAGCCTTGGGTTCTAACCTGTTGCGT (site TATCAGCCTAA) | 0.174
CATCCATCTTGGGTTCTAACCTGTTGCAT (site CATCCATCTAT) | 0.883
CATCCATCTTGGGTTCTAACCTGTTGCAT (site TCGAGGCCTTA) | 0.328
CATCCTCCTTGGGTTCTAACCTGTTGCTT (site CAGCCTTCTAA) | 0.103
CATCCTCCTTGGGTTCTAACCTGTTGCTT (site CATCCTCCTAA) | 0.0487
CATCGATCTTGGGTTCTAACCTGTTGCGT (site CATCGATCTAC) | 1.6
CATCGATCTTGGGTTCTAACCTGTTGCGT (site CTTTGATCTAC) | 0.0816
CATCGGACTTGGGTTCTAACCTGTTGCGA (site AGGGCACCTCT) | 0.112
CATCGGACTTGGGTTCTAACCTGTTGCGA (site CATCGGACTTC) | 1.35

Sequence | recombinant barcode read abundance (log10)
CATGAGACTTGGGTTCTAACCTGTTGCGG (site CATGAGACTCC) | 2.18
CATGAGACTTGGGTTCTAACCTGTTGCGG (site GCGATCCCTAA) | 0.0802
CATGAGCCTTGGGTTCTAACCTGTTGCCT (site CATAAGCCTAG) | 0.694
CATGAGCCTTGGGTTCTAACCTGTTGCCT (site CATCAGCCTAG) | 0.0278
CATGAGCCTTGGGTTCTAACCTGTTGCCT (site CATGAGCCTAG) | 2.23
CATGAGCCTTGGGTTCTAACCTGTTGCCT (site CATTAGCCTAG) | 0.196
CATGATTCTTGGGTTCTAACCTGTTGCCT (site CATAATTCTAG) | 0.0239
CATGATTCTTGGGTTCTAACCTGTTGCCT (site CATCATTCTAG) | 0.087
CATGATTCTTGGGTTCTAACCTGTTGCCT (site CATGATTCTAG) | 1.05
CATGATTCTTGGGTTCTAACCTGTTGCCT (site CATTATTCTAG) | 0.0435
CATGCTCCTTGGGTTCTAACCTGTTGCAT (site CATGCTCCTAG) | 0.168
CATGCTCCTTGGGTTCTAACCTGTTGCAT (site CATGCTCCTAT) | 0.194
CATGCTCCTTGGGTTCTAACCTGTTGCCT (site CATGCTCCTAG) | 0.353
CATGCTCCTTGGGTTCTAACCTGTTGCCT (site CATGCTCCTAT) | 0.512
CATTAGCCTTGGGTTCTAACCTGTTGCCT (site CATAAGCCTAG) | 0.0881
CATTAGCCTTGGGTTCTAACCTGTTGCCT (site CATCAGCCTAG) | 0.26
CATTAGCCTTGGGTTCTAACCTGTTGCCT (site CATGAGCCTAG) | 0.0107
CATTAGCCTTGGGTTCTAACCTGTTGCCT (site CATTAGCCTAG) | 0.583
CATTAGTCTTGGGTTCTAACCTGTTGCCT (site CATTAGTCTAG) | 1.33
CATTAGTCTTGGGTTCTAACCTGTTGCCT (site TATTAATCTAG) | 0.0986
